# Patent publication US11485733B2, “Azaquinoline derivatives” (BAYER ANIMAL HEALTH GMBH, priority 2017, dated 2022)
# Legend:
# [1] = system: Dirofilaria immitis microfilariae; experiment: Dirofilaria immitis microfilariae (DIROIM L1) motility; conditions: 72 h, read-out: EC50 (reduction of motility)
# [2] = system: Nippostrongylus brasiliensis; experiment: Nippostrongylus brasiliensis (NIPOBR) adult worms, acetylcholine esterase readout; conditions: read-out: activity (reduction of AChE compared to negative control); for inhibition at 1 µg/mL: at 1 μg/ml (1 ppm); for inhibition at 10 µg/mL: at 10 μg/ml (10 ppm)
# Method: In Vitro Assay 3: Nippostrongylus brasiliensis (NIPOBR)
# Adult Nippostrongylus brasiliensis were washed with saline buffer containing 100 U/ml penicillin, 0.1 mg/ml streptomycin and 2.5 μg/ml amphotericin B. Test compounds were dissolved in DMSO and worms were incubated in medium in a final concentration of 10 μg/ml (10 ppm) respectively 1 μg/ml (1 ppm). An aliquot of the medium was used to determine the acetylcholine esterase activity in comparison to a negative control. The principle of measuring acetylcholine esterase as readout for anthelmintic activity was described in Rapson et al (1986) and Rapson et al (1987).
# [3] = molecular target: C. elegans Slo-1a (Caenorhabditis elegans, UniProt Q95V25); conditions: pE50 (negative decadic logarithm of EC50), CHO cells expressing C. elegans Slo-1a; voltage sensitive dye, 70 mM KCl
# Chain of C. elegans Slo-1a (Q95V25 whole entry): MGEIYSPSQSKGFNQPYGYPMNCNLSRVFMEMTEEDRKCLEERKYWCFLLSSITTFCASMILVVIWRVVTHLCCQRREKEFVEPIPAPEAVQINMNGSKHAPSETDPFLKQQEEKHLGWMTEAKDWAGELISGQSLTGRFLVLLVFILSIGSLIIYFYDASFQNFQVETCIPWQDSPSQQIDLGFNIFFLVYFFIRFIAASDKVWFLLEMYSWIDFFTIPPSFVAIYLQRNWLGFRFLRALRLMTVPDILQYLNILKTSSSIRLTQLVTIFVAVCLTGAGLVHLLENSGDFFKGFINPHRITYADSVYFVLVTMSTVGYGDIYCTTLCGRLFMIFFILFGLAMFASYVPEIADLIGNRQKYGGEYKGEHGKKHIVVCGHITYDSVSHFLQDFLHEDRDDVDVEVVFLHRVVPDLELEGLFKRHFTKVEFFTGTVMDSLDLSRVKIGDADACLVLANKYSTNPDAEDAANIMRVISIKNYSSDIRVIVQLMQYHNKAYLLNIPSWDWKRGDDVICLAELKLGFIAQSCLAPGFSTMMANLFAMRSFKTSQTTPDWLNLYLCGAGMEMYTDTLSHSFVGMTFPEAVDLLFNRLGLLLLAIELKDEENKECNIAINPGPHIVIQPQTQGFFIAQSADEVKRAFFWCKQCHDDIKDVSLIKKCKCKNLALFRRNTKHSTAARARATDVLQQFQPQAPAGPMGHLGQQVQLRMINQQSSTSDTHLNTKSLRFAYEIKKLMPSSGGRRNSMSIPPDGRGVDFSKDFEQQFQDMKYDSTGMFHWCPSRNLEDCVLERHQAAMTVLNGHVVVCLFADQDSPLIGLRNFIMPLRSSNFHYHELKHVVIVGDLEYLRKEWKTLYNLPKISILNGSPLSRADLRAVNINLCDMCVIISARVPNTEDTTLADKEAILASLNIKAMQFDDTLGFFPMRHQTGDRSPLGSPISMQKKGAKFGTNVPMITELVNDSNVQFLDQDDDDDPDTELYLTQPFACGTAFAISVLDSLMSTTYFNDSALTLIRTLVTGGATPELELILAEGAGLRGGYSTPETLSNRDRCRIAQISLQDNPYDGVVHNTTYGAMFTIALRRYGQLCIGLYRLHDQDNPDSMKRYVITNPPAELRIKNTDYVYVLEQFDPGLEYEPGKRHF
# [4] = system: Dirofilaria immitis; experiment: Dirofilaria immitis (DIROIM L4) larval motility; conditions: 72 h, read-out: EC50 (reduction of motility)
# [5] = molecular target: D. immitis Slo-1 (Dirofilaria immitis, UniProt I0DFK5); experiment: D. immitis Slo-1, action at a recombinant CHO cell line (membrane potential, FLIPR); type: cell-based
# Chain of D. immitis Slo-1 (I0DFK5 1-1119): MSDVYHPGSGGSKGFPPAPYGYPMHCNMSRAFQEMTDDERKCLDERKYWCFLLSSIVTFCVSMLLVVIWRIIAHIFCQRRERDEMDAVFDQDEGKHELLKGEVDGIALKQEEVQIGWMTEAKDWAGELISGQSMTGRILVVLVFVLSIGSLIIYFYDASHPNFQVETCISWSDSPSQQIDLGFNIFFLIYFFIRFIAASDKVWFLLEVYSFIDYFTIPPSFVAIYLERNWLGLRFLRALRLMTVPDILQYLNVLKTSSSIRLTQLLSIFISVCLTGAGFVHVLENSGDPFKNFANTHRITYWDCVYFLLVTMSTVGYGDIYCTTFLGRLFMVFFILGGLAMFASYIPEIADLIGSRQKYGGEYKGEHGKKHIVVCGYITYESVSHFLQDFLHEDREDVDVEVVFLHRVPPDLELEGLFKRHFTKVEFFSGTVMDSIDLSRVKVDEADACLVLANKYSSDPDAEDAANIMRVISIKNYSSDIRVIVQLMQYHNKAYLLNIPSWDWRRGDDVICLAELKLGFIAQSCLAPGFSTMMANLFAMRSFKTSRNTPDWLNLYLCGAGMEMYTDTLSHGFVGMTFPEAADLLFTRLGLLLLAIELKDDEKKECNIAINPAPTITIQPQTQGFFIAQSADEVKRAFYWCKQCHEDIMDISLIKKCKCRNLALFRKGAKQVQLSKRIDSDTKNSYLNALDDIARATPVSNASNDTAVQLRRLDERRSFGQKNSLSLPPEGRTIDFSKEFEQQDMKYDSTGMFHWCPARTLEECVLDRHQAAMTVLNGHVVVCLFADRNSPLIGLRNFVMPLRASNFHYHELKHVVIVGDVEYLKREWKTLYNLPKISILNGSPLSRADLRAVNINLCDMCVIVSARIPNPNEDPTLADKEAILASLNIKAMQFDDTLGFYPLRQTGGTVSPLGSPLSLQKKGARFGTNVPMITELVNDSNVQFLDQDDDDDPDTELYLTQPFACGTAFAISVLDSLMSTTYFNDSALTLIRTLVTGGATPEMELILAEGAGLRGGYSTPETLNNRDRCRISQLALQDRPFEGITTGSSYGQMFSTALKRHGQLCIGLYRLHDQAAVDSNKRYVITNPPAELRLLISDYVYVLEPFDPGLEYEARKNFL
# [6] = system: Cooperia curticei; experiment: Cooperia curticei larval mortality; conditions: 120 h, read-out: activity (percentage of larval mortality)
# Method: In Vitro Assay 6: Cooperia curticei
# Solvent: Dimethyl Sulfoxide
# Approximately 40 nematode larvae (Cooperia curticei) are transferred into a test tube containing the compound solution.
# After 5 days percentage of larval mortality is recorded. 100% efficacy means all larvae are killed; 0% efficacy means no larvae are killed.
# [7] = system: Haemonchus contortus; experiment: Haemonchus contortus larval mortality; conditions: 120 h, read-out: activity (percentage of larval mortality)
# Method: In Vitro Assay 7: Haemonchus contortus
# Solvent: Dimethyl Sulfoxide
# Approximately 40 larvae of the red stomach worm (Haemonchus contortus) are transferred into a test tube containing compound solution.
# After 5 days the percentage of larval mortality is recorded. 100% efficacy means all larvae are killed, 0% efficacy means no larvae are killed.
Compound,EC50 [1] [µg/mL],inhibition at 1 µg/mL [2] [%],inhibition at 10 µg/mL [2] [%],EC50 [3] [nM],EC50 [4] [µg/mL],EC50 [5] [nM],mortality at 20 ppm [6] [%],mortality at 20 ppm [7] [%],mortality at 4 ppm [6] [%]
"CN(C)c1c(C(=O)N[C@H]2CCOc3ccccc32)cnc2c(-c3cc(Cl)cc(Cl)c3)ncnc12 [Example T4-1, 4-(3,5-Dichlorophenyl)-N-[(4S)-3,4-dihydro-2H-chromen-4-yl]-8-(dimethylamino)-pyrido[3,2-d]pyrimidine-7-carboxamide]",< 0.1,> 80,> 80,3.16 to 31.6,< 0.1,31.6 to 316,80,–,–
"O=C(N[C@H]1CCOc2ccccc21)c1cnc2c(-c3cccc(Cl)c3Cl)ncc(F)c2c1N1CCOCC1 [Example T1-7, 8-(2,3-dichlorophenyl)-N-[(4S)-3,4-dihydro-2H-1-benzopyran-4-yl]-5-fluoro-4-(morpholin-4-yl)-1,7-naphthyridine-3-carboxamide]",< 0.1,> 80,> 80,< 3.16,< 0.1,3.16 to 31.6,–,–,–
"CN(C)c1c(C(=O)N[C@H]2CCOc3ccccc32)nnc2c(-c3cccc(Cl)c3)cccc12 [Example T5-2, 8-(3-Chlorophenyl)-N-[(4S)-3,4-dihydro-2H-chromen-4-yl]-4-(dimethylamino)cinnoline-3-carboxamide]",< 0.1,–,–,3.16 to 31.6,–,31.6 to 316,80,80,–
"COc1ncc(-c2cccc(Cl)c2Cl)c2ncc(C(=O)N[C@H]3CCOc4ccccc43)c(N3CCOCC3)c12 [Example T2-11, 8-(2,3-dichlorophenyl)-N-[(4S)-3,4-dihydro-2H-1-benzopyran-4-yl]-5-methoxy-4-(morpholin-4-yl)-1,6-naphthyridine-3-carboxamide]",< 0.1,> 80,> 80,< 3.16,< 0.1,31.6 to 316,–,–,–
"O=C(N[C@H]1CCOc2ccccc21)c1cnc2c(-c3cc(Cl)cc(Cl)c3)cnnc2c1N1CCOCC1 [Example T6-4, 4-(3,5-Dichlorophenyl)-N-[(4S)-3,4-dihydro-2H-chromen-4-yl]-8-(morpholin-4-yl)pyrido[3,2-c]pyridazine-7-carboxamide]",–,–,–,31.6 to 316,–,31.6 to 316,90,80,–
"CN(C)c1c(C(=O)N[C@H]2CCOc3ccccc32)nnc2c(-c3ccc(F)c(F)c3)cccc12 [Example T5-4, 8-(3,4-Difluorophenyl)-N-[(4S)-3,4-dihydro-2H-chromen-4-yl]-4-(dimethylamino)cinnoline-3-carboxamide]",< 0.1,–,–,31.6 to 316,–,31.6 to 316,–,–,–
"O=C(N[C@H]1CCOc2ccccc21)c1cnc2c(-c3cc(Cl)cc(Cl)c3)ccnc2c1N1CCOCC1 [Example T3-2, 8-(3,5-Dichlorophenyl)-N-[(4S)-3,4-dihydro-2H-chromen-4-yl]-4-(morpholin-4-yl)-1,5-naphthyridine-3-carboxamide]",< 0.1,–,–,3.16 to 31.6,< 0.1,–,90,90,90
"CN(C)c1c(C(=O)N[C@H]2CCOc3ccccc32)cnc2c(-c3cc(Cl)cc(Cl)c3)cnnc12 [Example T6-3, 4-(3,5-Dichlorophenyl)-N-[(4S)-3,4-dihydro-2H-chromen-4-yl]-8-(dimethylamino)pyrido[3,2-c]pyridazine-7-carboxamide]",< 0.1,> 80,–,3.16 to 31.6,< 0.1,31.6 to 316,–,90,–
"O=C(N[C@H]1CCOc2ccccc21)c1cnc2c(-c3cccc(Cl)c3Cl)cnnc2c1N1CCOCC1 [Example T6-2, 4-(2,3-Dichlorophenyl)-N-[(4S)-3,4-dihydro-2H-chromen-4-yl]-8-(morpholin-4-yl)pyrido[3,2-c]pyridazine-7-carboxamide]",< 0.1,> 80,–,31.6 to 316,–,–,90,–,–
"CN(C)c1c(C(=O)N[C@H]2CCOc3ccccc32)nnc2c(-c3cccc(Cl)c3Cl)cccc12 [Example T5-3, 8-(2,3-Dichlorophenyl)-N-[(4S)-3,4-dihydro-2H-chromen-4-yl]-4-(dimethylamino)cinnoline-3-carboxamide]",< 0.1,> 80,–,< 3.16,< 0.1,3.16 to 31.6,80,–,–
"COc1cnc(-c2cccc(Cl)c2Cl)c2ncc(C(=O)N[C@H]3CCOc4ccccc43)c(N3CCOCC3)c12 [Example T1-14, 8-(2,3-dichlorophenyl)-N-[(4S)-3,4-dihydro-2H-1-benzopyran-4-yl]-5-methoxy-4-(morpholin-4-yl)-1,7-naphthyridine-3-carboxamide]",< 0.1,> 80,> 80,3.16 to 31.6,< 0.1,31.6 to 316,–,–,–
"COc1c(C(=O)N[C@H]2CCOc3ccccc32)nnc2c(-c3cccc(Cl)c3)cccc12 [Example T5-6, 8-(3-Chlorophenyl)-N-[(4S)-3,4-dihydro-2H-chromen-4-yl]-4-methoxycinnoline-3-carboxamide]",< 0.1,–,–,3.16 to 31.6,–,31.6 to 316,80,–,–
"O=C(N[C@H]1CCOc2ccccc21)c1cnc2c(-c3cc(Cl)cc(Cl)c3)ncnc2c1N1CCOCC1 [Example T4-2, 4-(3,5-Dichlorophenyl)-N-[(4S)-3,4-dihydro-2H-chromen-4-yl]-8-(morpholin-4-yl)pyrido[3,2-d]pyrimidine-7-carboxamide]",< 0.1,> 80,> 80,3.16 to 31.6,< 0.1,31.6 to 316,–,–,–
"CN(C)c1c(C(=O)N[C@H]2CCOc3ccccc32)nnc2c(-c3cc(Cl)cc(Cl)c3)cccc12 [Example T5-1, 8-(3,5-Dichlorophenyl)-N-[(4S)-3,4-dihydro-2H-chromen-4-yl]-4-(dimethylamino)cinnoline-3-carboxamide]",< 0.1,> 80,–,< 3.16,< 0.1,31.6 to 316,–,–,–
"COc1cnc(-c2cccc(Cl)c2Cl)c2ncc(C(=O)N[C@H]3CCOc4ccccc43)c(N(C)C)c12 [Example T1-11, 8-(2,3-dichlorophenyl)-N-[(4S)-3,4-dihydro-2H-1-benzopyran-4-yl]-4-(dimethylamino)-5-methoxy-1,7-naphthyridine-3-carboxamide]",< 0.1,> 80,> 80,3.16 to 31.6,< 0.1,31.6 to 316,–,–,–
"COc1cnc(-c2cc(F)cc(F)c2F)c2ncc(C(=O)N[C@H]3CCOc4ccccc43)c(N3CCOCC3)c12 [Example T1-9, N-[(4S)-3,4-dihydro-2H-1-benzopyran-4-yl]-5-methoxy-4-(morpholin-4-yl)-8-(2,3,5-trifluorophenyl)-1,7-naphthyridine-3-carboxamide]",–,> 80,> 80,3.16 to 31.6,< 0.1,31.6 to 316,–,–,–
"O=C(N[C@H]1CCOc2ccccc21)c1cnc2c(-c3cc(Cl)cc(Cl)c3)cncc2c1N1CCOCC1 [Example T2-4, 8-(3,5-Dichlorophenyl)-N-[(4S)-3,4-dihydro-2H-chromen-4-yl]-4-(morpholin-4-yl)-1,6-naphthyridine-3-carboxamide]",< 0.1,> 80,–,3.16 to 31.6,< 0.1,31.6 to 316,–,–,–
